For 4 compounds, solubility results are on record in patent US8841382B2, “Hyperbranched polyethers/dendrimers for solubilzation of sparingly soluble active ingredients” (BASF SE, priority 2010, dated 2014).

Converted amounts (≈) assume the structure as drawn. Read-outs that look alike come from different tables or passages of the source.

This data set is described as follows: Measurement of the solubilization of active ingredients by amphiphiles. In kind it is physicochemical. The following applies: thermodynamic from solid. The text has this: After a rest time of one hour, excess (i.e. unsolubilized) active ingredient was removed by centrifuging. The resulting clear or opaque solution was subsequently analyzed for its active ingredient content by means of UV spectroscopy. The wavelengths of the UV spectroscopy measurement are compiled in table 1.

Where [1] appears, read: distilled water without polymer, room temperature, stirred 24 h, UV spectroscopy, read-out: Solubility of active ingredient, no polymer (noninventive).

For orientation: solubility means the concentration that dissolves in the medium under given conditions.

For the compound `COC(=O)N(OC)c1ccccc1COc1ccn(-c2ccc(Cl)cc2)n1` [Pyraclostrobin], the solubility at 24 h under setting [1] worked out at 22.5 µg/mL (≈ 58 µM).
Regarding `CN1C(C(=O)Nc2ccccn2)=C(O)c2ccccc2S1(=O)=O` [Piroxicam], the solubility at 24 h under setting [1] turned out to be 21 µg/mL (≈ 63.4 µM).
As to `N#Cc1nn(-c2c(Cl)cc(C(F)(F)F)cc2Cl)c(N)c1[S+]([O-])C(F)(F)F` (stereo not shown) [Fipronil], the solubility at 24 h (water) worked out at 3 µg/mL (≈ 6.86 µM).
Take `NC(=O)N1c2ccccc2C=Cc2ccccc21` [Carbamazepine]: under setting [1], the solubility at 24 h turned out to be 140 µg/mL (≈ 593 µM).
